We go through five molecules from patent US20050020692A1, “Treatment of heaves” (priority 2003, published 2005).

The format of data set [1] is physicochemical. From the text: The chemical and optical purities of all batches used for biological studies have been >98%. […] No polymorphs have been detected.
The subject of the next data set is adrenergic β-2 receptors. In words: cAMP production in human PC3 cells. Conditions: PC-3, read-out: EC50 for cAMP production. (In general: Changes in cAMP serve as a functional read-out for many G protein-coupled receptors.)
Data set [2] has as its system Antigen-specific T-cell lines. Put plainly: Antigen-specific T-cell lines: proliferation, apoptosis, cytokine secretion. In kind it is cell-based, human. Here is the method: Parallel lines were generated in the presence of propranolol. Cells were evaluated for proliferation, apoptosis, and cytokine secretion.
In data set [3] the test system is isolated human leukocytes (buffy coat). Put plainly: A23187-stimulated histamine release from isolated human leukocytes. In kind it is cell-based. Particulars: for inhibition of release of the marker inflammatory mediator histamine: A23187 5 μM, 20 min/37° C., 4×10^−4 M to 10^−6 M. Here is the method: In this study, histamine was the marker compound for inflammatory mediators that are released from pro-inflammatory cells. The inhibition of stimulated histamine release from isolated human leukocytes (buffy coat) by test articles was studied. The method is a modification of the methodology described by Nolte et al. (1988). Leukocytes were obtained from healthy volunteers and inflammatory mediator release was induced by incubation (20 min/37° C.) with the Ca-ionophore A23187 (5 μM) in the presence or absence of a test article. Histamine was analyzed by enzyme-immuno assays (E.I.A.), using commercially available kits and a microplate reader (MRX, Dynatech). The test articles were tested in each assay at five concentrations ranging from 4×10^−4 M to 10^−6 M, in duplicate. In the same experiment, a reference compound was tested in duplicate at eight concentrations to obtain an inhibition curve to validate the experiment (not shown here). Results: […]

In data set [4] the test system is equine bronchial smooth muscle. In words: Carbachol-induced contractions of equine bronchial smooth muscle (hyperreactivity). Conditions: 37° C. The arrangement: species or system horse. Here is the method:
In this study, segments of equine bronchial smooth muscle are mounted on special holders and immersed in a physiologic solution containing glucose and aerated with 95% O2 and 5% CO2 at 37° C. Isometric tension is measured with force transducers and registered electronically. The effects of R-, RS- and S-albuterol on carbachol-induced contractions are studied.

Data set [5] concerns M-form phenolsulfotransferase (M-PST). Put plainly: Sulfotransferase activity in horse liver cytosol / intestinal mucosa. The data set is classed as in vitro ADME. Here is the method: Method: The livers from recently slaughtered horses are homogenized and the cytosol is prepared by differential centrifugation. The protein concentration of the cytosolic preparation is determined by the Lowry method (Lowry O. H. et al.: Protein measurement with the foline phenol reagent. J. Biol. Chem. 1951, 193: 265-275). […] Cytosol from the livers is incubated at 15 °C. After removal of unmetabolized beta-2 agonist with ethyl acetate, free drug is released from the conjugate using sulfatase. The concentrations of beta-2 agonist enantiomers are analyzed by chiral HPLC assay.
Results from tests with intestinal mucosa yielded the same surprising results.

The subject of data set [6] is isolated guinea pig tracheas. In words: Inhibition of airway smooth muscle contractions, isolated guinea pig tracheas. Conditions: Cavia porcellus, read-out: pD2 (converted). On the procedure: The following study was performed in vitro, using isolated guinea pig tracheas. The airway smooth muscle tissues were contracted by carbachol or ovalbumin or histamine. […] Results: pD2 Values of the Enantiomers of Albuterol

For data set [7] the following is noted: horse.
The next data set concerns pro-inflammatory cells. Particulars: cited from earlier work.
Where [8] appears, read: contractile stimulus Carbachol (10^-6 M).
The mark [9] stands for this setting: contractile stimulus Histamine (10^-5 M).
The mark [10] stands for this setting: contractile stimulus Ovalbumin (10-5 g/ml).

pEC50: −log10 of the molar value. Counter-ions that a name gives are not always drawn. Like-named read-outs stand apart in the source and are kept apart here.

In the case of `CC(C)(C)NC[C@H](O)c1ccc(O)c(CO)c1.Cl` [R(−)-albuterol hydrochloride], the solubility in water result in [1] is listed as “readily soluble”.
Consider `CC(C)(C)NCC(O)c1ccc(O)c(CO)c1` (racemic) [RS-albuterol], for which, in the data set with adrenergic β-2 receptors, the pEC50 (commonly −log10 of the EC50, conventionally taken in molar units) was 6.68. Further, in data set [2], the influence on proliferation result is recorded as “minimal influences”. Besides, the cytokine production result in [2] (10(−8) mol/L each isomer) is “no influence”.
As for `CC(C)(C)NC[C@H](O)c1ccc(O)c(CO)c1.CC(C)(C)NC[C@H](O)c1ccc(O)c(CO)c1.O=S(=O)(O)O` [R(−)-albuterol sulfate], the solubility in water result in data set [1] is “readily soluble”.
As for `CC(C)(C)NC[C@H](O)c1ccc(O)c(CO)c1` [R(−)-albuterol, (R)-[…]^1-[[(1,1-dimethylethyl)amino]methyl]-4-hydroxy-1,3-benzene-dimethanol, sulfate (2:1) (salt)], the “inhibition of release of the marker inflammatory mediator histamine” value in [3] is “Neither R(−)-albuterol nor S(+)-albuterol inhibited the release”. Also, the “effect on equine bronchial smooth muscle” value in data set [4] was “causing bronchorelaxation”. For the same molecule, the “intestinal or hepatic metabolism by M-form phenolsulfotransferase” value in data set [5] was “not to undergo intestinal or hepatic metabolism”. In the data set with adrenergic β-2 receptors, the pEC50 was 7.00. The values for the EC50 in [6] (setting [8]), in [6] (setting [9]) and in data set [6] (setting [10]) were 79.4 nM, 20 nM and 5.01 nM, respectively. In addition, the T-cell proliferation in data set [2] (10(−7) mol/L, % of control) is listed as 61.1%±9.0%; in [2] (10(−8) mol/L) it was 77.0%±9.7%. In addition, in [2] (10(−8) mol/L), the “IL-2 and IFN-gamma production” value is “inhibited”. Besides, the “inversion to S-albuterol” value in data set [7] is “no such inversion takes place”.
With `CC(C)(C)NC[C@@H](O)c1ccc(O)c(CO)c1` [S(+)-albuterol], in data set [3], the “inhibition of release of the marker inflammatory mediator histamine” value was “Neither R(−)-albuterol nor S(+)-albuterol inhibited the release”. The “increase of release of histamine from leukocytes” value in data set [3] (at concentrations of 10 μM and higher) is “significantly and dose-dependently increased the release”. Besides, the “effect on equine bronchial smooth muscle” value in [4] was “causing bronchial hyperreactivity”. For the same molecule, in the data set on adrenergic β-2 receptors, the pEC50 was 4.85. For the same molecule, the “facilitation of release of inflammatory mediators” value in the data set with pro-inflammatory cells is “facilitating the release”. For the same molecule, the EC50 was 79400 nM in data set [6] (setting [8]), 5010 nM in data set [6] (setting [9]) and 31600 nM in data set [6] (setting [10]). Besides, the “influence on T-cell proliferation” value in data set [2] (S(+)-albuterol alone) is “No influence was observed”.
